Experimental data reported in patent EP2573105B1, “p16INK4a derived peptides for prophylaxis and therapy of HPV-associated tumors and other p16INK4a expressing tumors” (Ruprecht-Karls-Universität Heidelberg, priority 2011, dated 2013).

Test system: Peripheral blood mononuclear cells (PBMCs)
Experiment: BrdU proliferation assay of PBMCs incubated with p16INK4a peptides
Format: cell-based, human
Conditions: first reacting patient; PBMCs from women with CIN2/3
Protocol: Peripheral blood mononuclear cells (PBMCs) from 13 women with p16^INK4a-expressing high grade cervical dysplasia (CIN2/3) were incubated with p16^INK4a peptides (Table 1) to determine the proliferative capacity of the immune cells by applying a BrdU assay as a global measure for lymphoproliferative potential after challenge with the p16^INK4a peptides. The BrdU-assay is a colorimetric immunoassay applied for the quantification of cell proliferation based on the measurement of the thymidine analogue 5-bromo-2'-deoxyuridine incorporation during DNA synthesis. PBMCs in IMDM medium supplemented with 10% human serum were seeded in a 96-well-microtiter-plate (flat bottom) at a density of 150.000 cells/50µl/well. Cells in each 4 replicate wells were incubated in the presence of the seven p16INK4a peptides (Table 1), tetanus toxoid (20 ng/ml, Calbiochem, La Jolla, CA) and mitogen PHA-L (5 µg/ml, Roche, Mannheim, Germany) as positive controls and no antigen as negative control for 6 days at 37°C, 5% CO2. […] The enzyme reaction was stopped by adding 25 µl/well 1N H2SO4 and optical density (OD) was measured at 450 nm (reference wavelength 620 nm). […]

GHRDVARYLRAAAGGTRGSNHARIDAAEGPSDIPD [p16INK4a_123-156]
response (proliferation, BrdU assay): showed response
